Data from PubChem BioAssay (NCI).
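1) Cells in 96-well plates. 2) Compound, 48 h, 5 concentrations. 3) Linear interpolation between surrounding doses. 4) Unreached endpoint = highest concentration. At the TGI there is no net growth.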

Legend:
Experiment in all cases: inhibition of tumour cell growth, NCI panel, 48 h
[1] = test system: SR leukemia
[2] = test system: SF-539 CNS
[3] = test system: CAKI-1 renal
[4] = test system: MDA-MB-231 breast
[5] = test system: M14 melanoma
[6] = test system: RPMI-8226 leukemia
[7] = test system: HS 578T breast
[8] = test system: OVCAR-4 ovarian
[9] = test system: A498 renal
[10] = test system: HT29 colon
[11] = test system: EKVX NSCLC
[12] = test system: SNB-19 CNS
[13] = test system: UACC-257 melanoma
[14] = test system: SK-MEL-28 melanoma
[15] = test system: PC-3 prostate
[16] = test system: NCI/ADR-RES ovarian
[17] = test system: LOX IMVI melanoma
[18] = test system: OVCAR-5 ovarian
[19] = test system: SK-OV-3 ovarian
[20] = test system: K-562 leukemia
[21] = test system: OVCAR-8 ovarian
[22] = test system: MDA-MB-435
[23] = test system: NCI-H522 lung
[24] = test system: 786-0 renal
[25] = test system: MOLT-4 leukemia
[26] = test system: A549 NSCLC
[27] = test system: SK-MEL-2 melanoma
[28] = test system: SF-295 CNS
[29] = test system: UO-31 renal
[30] = test system: MCF7 breast
[31] = test system: NCI-H226 lung
[32] = test system: U251 CNS
[33] = test system: CCRF-CEM leukemia
[34] = test system: NCI-H460 lung
[35] = test system: RXF 393 renal
[36] = test system: IGROV1 ovarian
[37] = test system: HCT-15 colon
[38] = test system: UACC-62 melanoma
[39] = test system: MALME-3M melanoma
[40] = test system: SW-620 colon
[41] = test system: SK-MEL-5 melanoma
[42] = test system: BT-549 breast
[43] = test system: SNB-75 CNS
[44] = test system: HOP-62 NSCLC
[45] = test system: SF-268 CNS
[46] = test system: KM12 colon
[47] = test system: HL-60(TB) leukemia
[48] = test system: OVCAR-3 ovarian
[49] = test system: COLO 205 colon
[50] = test system: TK-10 renal
[51] = test system: HCT-116 colon

Measured: TGI

COc1ccccc1NC(=S)Nc1ccccn1
> 100 µM: [1] | [2] | [3] | [4] | [5] | [6] | [7] | [8] | [9] | [10] | [11] | [12] | [13] | [14] | [15] | [16] | [17] | [18] | [19] | [20] | [21] | [22] | [23] | [24] | [25] | [26] | [27] | [28] | [29] | [30] | [31] | [32] | [33] | [34] | [35] | [36] | [37] | [38] | [39] | [40] | [41] | [42] | [43] | [44] | [45] | [46] | [47] | [48] | [49] | [50] | [51]
